Among the data in patent publication US9682961B2, “Quinazoline derivative” (CARNA BIOSCIENCES, INC., priority 2013, dated 2017) are inhibition and AXIN2 gene expression values, retold here.

The structures appear in SMILES notation.

In one experiment the test system is AXIN2 protein expression. Kind of experiment: Expression level of Wnt/β-catenin target protein AXIN2 by western blotting in HCT116 cells. Type of experiment: cell-based. To be noted: Homo sapiens, 24 hours, read-out: Inhibition rate (%) AXIN2 protein. The protocol: (§1) Expression levels of target proteins of the Wnt/β-catenin signaling pathway was analyzed by western blotting method, and effects of the compound of the present invention on Wnt/β-catenin signaling activity were studied by using a change of these levels as an indicator. HCT116 cells cultured in the same manner as in Test Example 2 were diluted with the medium 1 so as to have a cell concentration of 5×10^5 cells/mL, and 5 mL of the diluted cells were seeded into T25 flasks, followed by culturing overnight in the 5% CO2 incubator. Next day, solutions of the compound to be tested obtained by diluting 10 and 3 mM DMSO stock solutions of the compound to be tested 100-fold with the medium 1 were added to each flask so that the amount of the solution in the flask was one tenth of the amount of the final solution (final concentrations of the compound to be tested: 10 and 3 μM). […] Supernatant was recovered by centrifugal operation (15,000 rpm, 10 min.) and amounts of proteins were determined. […] Thereafter, using a CCD camera (GE Healthcare Co., ImageQuant LAS 500), the respective bands were detected by chemiluminescence. The detected bands were quantified by densitometry (GE Healthcare Co., ImageQuant TL v8.1.0.0). Inhibition rates were calculated from the intensities of the bands in the respective groups, with the luminescence of the band of the DMSO added group being 100%. […]
A general note: A western blot detects proteins with antibodies after separation by electrophoresis.

The subject of the next experiment is c-MYC protein expression. Briefly: Expression level of Wnt/β-catenin target protein c-MYC by western blotting in HCT116 cells. It counts as cell-based. As to conditions: Homo sapiens, 24 hours, read-out: Inhibition rate (%) c-MYC protein. The protocol: as §1
Another experiment concerns AXIN2 gene expression. Briefly: Expression level of Wnt/β-catenin target gene AXIN2 by real-time PCR in HCT116 cells. It counts as cell-based, human. As to conditions: 10 and 3 μM, 24 hours. The protocol:
Effects of the compound of the present invention on Wnt/β-catenin signaling activity were studied using the real-time PCR method as well as using as an indicator changes in expression levels of target genes of the Wnt/β-catenin signaling pathway. To a RPMI 1640 medium (NACALAI TESQUE, INC.), 10% FBS (AusGeneX PTY LTD.) and 1% Penicillin/Streptomycin (NACALAI TESQUE, INC.) were added to prepare a cell culture medium (hereinafter referred to as medium 1). In a T75 flask, HCT116 cells (ATCC No. CCL-247) were added to the medium 1. The cells in the flask were cultured in the 5% CO2 incubator. The cultured HCT116 cells were diluted with the medium 1 so as to have a cell concentration of 1.1×10^5 cells/mL. Into the T75 flask, 13.5 mL of the diluted cells was seeded, followed by culturing overnight in the 5% CO2 incubator. […] Total RNA concentration was measured by a microspectrophotometer (Thermo Fisher Scientific Inc., Nano Drop ND-1000). […] The results were calculated as the expression ratio of the target gene to the endogenous control gene (β-Actin) by the comparative Ct method using a DMSO group as a reference.
Background: Quantitative PCR measures a nucleic acid by following its amplification.

As to `O[C@H]1CC[C@@H](Oc2cccc3cnc(Nc4ccc5nc[nH]c5c4)nc23)CC1` [Example 1, cis-4-({2-[(1H-benzo[d]imidazol-6-yl)amino]quinazolyn-8-yl}oxy)cyclohexanol], the inhibition at 3 µM in the experiment on AXIN2 protein expression (HCT-116, 3 μM) was 46.1%; with c-MYC protein expression (HCT-116, 3 μM) it was 63.9%. For the same molecule, the inhibition at 10 µM stood at 66.9% with AXIN2 protein expression (HCT-116, 10 μM) and 90.2% with c-MYC protein expression (HCT-116, 10 μM). Also, in the experiment on AXIN2 gene expression, the AXIN2 gene expression entry was “inhibited the expression of AXIN2 and c-MYC”.

What is called inhibition is the percentage by which the read-out fell short of the control.
